Results on two sequences are retold here after patent US20100093642A1, “NOVEL POLYPEPTIDES” (priority 2006, published 2010).

The test system of test [1] is C. glutamicum (ATCC 13032). Format: cell-based, Corynebacterium glutamicum. How it is done: (§1) The antibacterial activities of the different peptides were determined by continuous monitoring of bacterial growth with a Bioscreen C microbiology reader (Labsystems Oy, Helsinki, Finland). The test was performed in 100-well flat-bottomed honeycomb plates, in which 50 μl of test fractions were incubated with 50 μl of a suspension of an actively growing culture of bacteria diluted in Mueller Hinton medium to a starting concentration of 3×10^4 cells per ml. […] [NT] 13032) and S. aureus (ATCC 9144), were chosen as test bacteria. […] Polymyxin B (Sigma, St.

Test [2] has as its system E. coli (ATCC 25922). The class given is cell-based, Escherichia coli. How it is done:
as §1

In test [3] the test system is Listonella (Vibrio) anguillarum, serotype O2 (FT 1801). The class given is cell-based. On the procedure: as §1
Test [4] concerns Pseudomonas aeruginosa. The class given is cell-based. On the procedure:
as §1

Test [5] relates to S. aureus (ATCC 9144). Format: cell-based, Staphylococcus aureus. Conditions: ATCC 9144. How it is done: as §1
The subject of test [6] is Saccharomyces cerevisiae. The following applies: 48 h. On the procedure: (§2) The various derivates of P17 (brominated and non-brominated) were tested for their ability to inhibit fungal growth of the yeast strains Saccaharomyces cerevisiae sp, Candida albicans (ATCC 10231) and Rodotorula sp., and the filamentous strains Botrytis cinerea 101, Penicillium rogveforti, and Fusarium sp. All strains, except C. albicans, were a gift from Prof. A. Tronsmo (The Norwegian University of Life Sciences, Ås, Norway). The fungi were cultivated on potato dextrose agar, supplemented with 2% glucose, at room temperature. Before antifungal testing, the fungi were dissolved in potato dextrose broth (Difco) at half-strength. Cell concentration was determined and adjusted after counting in a Bürker chamber. The filamentous fungi were filtered through a piece of cotton before counting. An aliquot of 50 μl of fungal spores (final concentration 2×10^5 spores per ml) were inoculated in microtiter plates (96 wells) along with 50 μl peptide solution. Peptides, dissolved in distilled water, were tested at final concentrations (two-fold dilutions) ranging from 50 μM to 0.1 μM. Cultures were grown in the dark (without shaking) and with a moist chamber at 25° C. (37° C. for C. albicans). Growth inhibition was determined microscopically after 48 h of incubation. MIC was determined as the lowest concentration of peptide resulting in 50% inhibition of visible growth.

Test [7] deals with Candida albicans (ATCC 10231). The following applies: ATCC 10231, 48 h. How it is done: as §2
The test system of test [8] is Botrytis cinerea 101. Conditions: 48 h. On the procedure:
as §2

Test [9] concerns Penicillum rogveforti. Briefly: Antifungal MIC. Conditions: filamentous fungi; more than 50% inhibition of visible growth, 48 h. The class given is cell-based. How it is done:
as §2

Test [10] deals with L. anguillarum. Format: cell-based, Listonella (Vibrio) anguillarum. On the procedure: (§3) The Gram-negative bacteria Listonella (Vibrio) anguillarum, serotype O2 (FT 1801, also coded as AL 104/LFI 6004), originally isolated from Atlantic salmon by staff of the Norwegian Veterinary Institute (Oslo, Norway), Escherichia con (ATCC 25922), and the Gram-positive bacteria Staphylococcus aureus (ATCC 9144) and Corynebacterium glutamicum (ATCC 13032) were used as test organisms. All isolates were grown at room temperature in Mueller Hinton Broth (MBB; Difco Laboratories, Detroit, U.S.A).
(§4) The antibacterial activities of the obtained HPLC fractions were determined by continuous monitoring of bacterial growth with a Bioscreen C microbiology reader (Labsystems Oy, Helsinki, Finland). The test was performed in 100-well flat-bottomed honeycomb plates, in which […] of test fractions were incubated with 50 μl of a suspension of an actively growing culture of bacteria diluted to a starting concentration of 5×10^3 cells per well. The growth chamber was maintained at 20° C. during the incubation period. The absorbance was measured at 2 h intervals for 48 h by a turbidometric method with vertical light photometry and a wide band filter (420-580 nm), which is more insensitive to colour change in the sample compared to single wavelength detection. Cecropin P1(0.5 μg/ml) was used as a positive control during these experiments. Antibacterial activity was determined when the optical density (OD) of the growth control (bacteria plus water) reached an absorbance of approximately 0.3. Fractions were regarded as active when the OD was less than 50% of the growth control.
(§5) The polypeptides of the present invention were isolated and subsequently tested for activity. A serial dilution method was employed to examine the antibacterial activity of the peptides. Two Gram-negative bacteria, L. anguillarum and E. coli, and two Gram-positive bacteria, C. glutamicum and S. aureus, were chosen as test bacteria. The polypeptides of the present invention were active against both Gram-positive and Gram-negative bacteria (table 4).

In test [11] the test system is C. glutamicum. The class given is cell-based, Corynebacterium glutamicum. On the procedure: as §3, §4, §5
The test system of test [12] is E. coli. Format: cell-based, Escherichia coli. How it is done: as §3, §4, §5
In test [13] the test system is S. aureus. Format: cell-based, Staphylococcus aureus. How it is done:
as §3, §4, §5

The subject of test [14] is Salmonella enterica serovar typhimurium (ATCC 14028). Briefly: Bacterial cell viability, lux luminescence and OD600, with or without LPS. The class given is cell-based. Conditions: co-incubation with 2.5 μM Aeromonas salmonicida LPS. From the text:
(§6) To evaluate the effect of antimicrobial peptides on the viability of bacteria in a fast and reliable manner we used the lux CDABE operon from Photorhabdus luminescens as a reporter system in gram negative test bacteria and the modified luxABCDE operon in S. aureus (Vesterlund et al. 2004). Bacterial bioluminescence is directly dependent on metabolic activity, since reduction equivalents are needed to drive light emission. Any form of interruption of bacterial cell integrity or metabolism will therefore be detected as a reduction in light emission.
(§7) For the assay we used S. aureus (RN4220), E. coli K-12 and Salmonella enterica serovar typhimurium (ATCC 14028) transformed with the respective lux-operon containing plasmids (Vesterlund et al. 2004).
(§8) For each experiment a fresh colony was picked from Luria-Bertani plates supplemented with 10 μg/ml of erythromycin in case of S. aureus and with 100 μg/ml of ampicillin in case of E. coli and S. enterica serovar Typhimurium. Each colony was suspended in 5 ml of Müller-Hinton medium with appropriate antibiotics. The culture was incubated over night at 37° C. in a shaking incubator. The next morning 0.5 ml of this culture was transferred to 30 ml fresh MH medium in an Erlenmeyer-flask supplemented with the respective antibiotic. The flask was incubated (200 rpm shaking; 37° C.) until an OD600 of 0.5-0.8 was reached. The culture was then diluted to an OD600 of about 0.02-0.03 before transfer to the 96 well opaque plates with optical bottom (Packard ViewPlate) used for the assay.
The synthesized peptides were dissolved in water and aliquots frozen at −18° C. until use. Twofold dilutions of test peptides (final concentrations ranging from 0.31 to 80 μM) were directly prepared in 96 well microtiter plates in a volume of 10 μl in water. 90 μl is of indicator bacteria in MH medium were added directly to the prepared and pre-warmed (30 minutes at 37° C.) plate before starting the measurement in a Victor multiplate reader (Perkin Elmer) at 37° C. Both OD600 and luminescence in counts per second (cps) were followed over 5 hours in measuring intervals of 5 minutes. The plates where shaken before each measurement (20 sec.; 5 mm orbital shaking; 10 sec waiting). The growth curves and light emission curves were drawn and evaluated to determine the MIC for each indicator strain. The MIC was defined as the concentration of test compound causing more than 50% reduction in bioluminescence (cps) or optical density (OD600) after 5 hours, compared to the growth control. Cecropin P1 was used as positive control. The results (table 14a-b) confirm the results obtained in example 2, showing a pronounced antibacterial effect of the longest peptide fragments. […] The partial peptides P17 HC (1-20), both bromated and unbromated, inhibit growth only in higher concentrations.
A second plate with an otherwise similar setup (as described for the luminescence assay in example 3) was prepared, but with addition of Aeromonas salmonicida LPS to the peptide dilutions before pre-warming. The LPS end concentration in each well was approximately 2.5 μM.

The test system of test [15] is E. coli K-12. The test is described as above. Format: cell-based, Escherichia coli. Conditions: co-incubation with 2.5 μM Aeromonas salmonicida LPS.
From the text: as §6, §7, §8
The synthesized peptides were dissolved in water and aliquots frozen at −18° C. until use. Twofold dilutions of test peptides (final concentrations ranging from 0.31 to 80 μM) were directly prepared in 96 well microtiter plates in a volume of 10 μl in water. 90 μl is of indicator bacteria in MH medium were added directly to the prepared and pre-warmed (30 minutes at 37° C.) plate before starting the measurement in a Victor multiplate reader (Perkin Elmer) at 37° C. Both OD600 and luminescence in counts per second (cps) were followed over 5 hours in measuring intervals of 5 minutes. The plates where shaken before each measurement (20 sec.; 5 mm orbital shaking; 10 sec waiting). The growth curves and light emission curves were drawn and evaluated to determine the MIC for each indicator strain. The MIC was defined as the concentration of test compound causing more than 50% reduction in bioluminescence (cps) or optical density (OD600) after 5 hours, compared to the growth control. Cecropin P1 was used as positive control. […]
A second plate with an otherwise similar setup (as described for the luminescence assay in example 3) was prepared, but with addition of Aeromonas salmonicida LPS to the peptide dilutions before pre-warming. […]

No end group written: not given here.

On to DLRGACAAAHAL [P17 LC], for which, in test [1], the “Minimal inhibitory concentration, C. glutamicum” value was >100 µM. The “Minimal inhibitory concentration, E. coli” value in test [2] is >100 µM. In addition, the “Minimal inhibitory concentration, L. anguillarum” value in test [3] is >100 µM. Besides, in test [4], the “Minimal inhibitory concentration, P. aeruginosa” value is >100 µM. Moreover, in test [5], the “Minimal inhibitory concentration, S. aureus” value is >100 µM. Moreover, the “Minimal inhibitory concentration (MIC), Saccharomyces cerevisiae” value in test [6] was >100 µM. For the same sequence, the “Minimal inhibitory concentration (MIC), Candida albicans” value in test [7] was >100 µM. For the same sequence, the “Minimal inhibitory concentration (MIC), Botrytis cinerea” value in [8] is >100 µM. In addition, the “Minimal inhibitory concentration (MIC), Penicillum rogveforti” value in test [9] was >100 µM.

Take “SWLSKTAKKLENSAKKRISEGIAIAIQGGPR [Cecropin P1, reference compound]”: in test [10], the “Minimal inhibitory concentration (MIC), L. anguillarum” value is 1.2 µM. For the same sequence, the “Minimal inhibitory concentration (MIC), C. glutamicum” value in test [11] amounted to 1.6 µM. Besides, the “Minimal inhibitory concentration (MIC), E. coli” value in [12] turned out to be 1.2 µM. In addition, the “Minimal inhibitory concentration (MIC), S. aureus” value in [13] turned out to be 12.5 µM. For the same sequence, the “MIC, more than 50% reduction in optical density, S. enterica, P + LPS” value in test [14] (OD600, 5 hours) was determined as 10 µM. In [14] (luminescence (cps), 5 hours), the “MIC, more than 50% reduction in luminescence, S. enterica, P + LPS” value was 10 µM. Also, in test [15] (OD600, 5 hours), the “MIC, more than 50% reduction in optical density, E. coli, P + LPS” value amounted to 20 µM. For the same sequence, the “MIC, more than 50% reduction in luminescence, E. coli, P + LPS” value in [15] (luminescence (cps), 5 hours) worked out at 20 µM.
